Calls of active or inactive are those of the source.
How the values were obtained:
[1] = molecular target: Beta-2 adrenergic receptor (Homo sapiens, UniProt P07550); assay: ADRB2 activation measured by internalization – cell-based, FAP fluorogen, flow cytometry, cherry pick 1, dose response (AID 588763); format: functional
[2] = Fluorescence polarization-based biochemical high throughput dose response assay for activators of the Protein Kinase A-R1A (PKA-R1A) complex. [Related pubchem assays (depositor defined):AID504704, AID504707, AID504799, AID504800]
[3] = Fluorescence polarization-based biochemical high throughput dose response assay for activators of the Protein Kinase A-R2B (PKA-R2B) complex. [Related pubchem assays (depositor defined):AID504700, AID504704, AID504796, AID504797]
[4] = luciferase reporter signal suppression in cells – H4 neuroglioma cells, luminescence, dose response (AID 1990); format: functional, cell-based
[5] = Luminescence Cell-Based Dose Response HTS to Identify Inhibitors of 5'UTR Stem-Loop Driven Prion Protein mRNA Translation in H4 Neuroglioblastoma Cells. [Related pubchem assays: 1827 (Project Summary), 1813 (Primary HTS)]; format: functional
[6] = molecular target: T1, Heat shock factor protein 1 (Mus musculus, UniProt P38532); assay: decrease of HSF1-responsive luciferase luminescence – cell-based, NIH3T3, dose retest, confirmation (AID 2382); format: functional;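 also: NIH3T3 fibroblasts with HSF1-driven luciferase reporter stressed by proteasome inhibitor MG132; luminescence from HSF1-driven luciferase expression after 8 hours of MG132 stress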
T1 sequence (P38532 whole entry): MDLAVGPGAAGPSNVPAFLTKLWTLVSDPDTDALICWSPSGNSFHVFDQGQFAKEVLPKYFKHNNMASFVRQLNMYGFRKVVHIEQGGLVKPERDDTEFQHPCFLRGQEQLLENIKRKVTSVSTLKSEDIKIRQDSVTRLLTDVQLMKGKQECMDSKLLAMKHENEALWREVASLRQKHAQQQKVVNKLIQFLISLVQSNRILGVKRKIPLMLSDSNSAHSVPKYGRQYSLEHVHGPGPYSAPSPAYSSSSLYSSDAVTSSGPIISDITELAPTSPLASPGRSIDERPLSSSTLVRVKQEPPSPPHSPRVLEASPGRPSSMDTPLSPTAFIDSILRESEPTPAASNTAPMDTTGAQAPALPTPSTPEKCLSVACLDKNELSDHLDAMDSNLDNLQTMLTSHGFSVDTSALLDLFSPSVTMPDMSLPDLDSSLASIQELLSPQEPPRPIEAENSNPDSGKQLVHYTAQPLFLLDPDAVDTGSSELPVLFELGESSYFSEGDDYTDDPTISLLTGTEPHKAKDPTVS

[7] = alpha-synuclein stem-loop luciferase translation blockers – H4 neuroglioma cells, luminescence, confirmation (AID 1988); format: functional, cell-based
[8] = molecular target: Heat shock protein HSP 90-alpha (Homo sapiens, UniProt P07900); assay: Luminescence-based dose response biochemical high throughput screening assay for inhibitors of the Heat Shock Protein 90 (HSP90). [Related pubchem assays: 1831 (Summary AID.), 1846 (Confirmation screen.), 1789 (Primary screen.)]
[9] = molecular target: Luciferin 4-monooxygenase (Photuris pensylvanica, UniProt Q27757); assay: inhibition of Cell Titer Glo luciferase signal – biochemical, luminescence, cherry-picks, counter-screen for HSF-1 reporter inhibitor project, dose response (AID 588847)
Sequence of Luciferin 4-monooxygenase (Q27757 whole entry): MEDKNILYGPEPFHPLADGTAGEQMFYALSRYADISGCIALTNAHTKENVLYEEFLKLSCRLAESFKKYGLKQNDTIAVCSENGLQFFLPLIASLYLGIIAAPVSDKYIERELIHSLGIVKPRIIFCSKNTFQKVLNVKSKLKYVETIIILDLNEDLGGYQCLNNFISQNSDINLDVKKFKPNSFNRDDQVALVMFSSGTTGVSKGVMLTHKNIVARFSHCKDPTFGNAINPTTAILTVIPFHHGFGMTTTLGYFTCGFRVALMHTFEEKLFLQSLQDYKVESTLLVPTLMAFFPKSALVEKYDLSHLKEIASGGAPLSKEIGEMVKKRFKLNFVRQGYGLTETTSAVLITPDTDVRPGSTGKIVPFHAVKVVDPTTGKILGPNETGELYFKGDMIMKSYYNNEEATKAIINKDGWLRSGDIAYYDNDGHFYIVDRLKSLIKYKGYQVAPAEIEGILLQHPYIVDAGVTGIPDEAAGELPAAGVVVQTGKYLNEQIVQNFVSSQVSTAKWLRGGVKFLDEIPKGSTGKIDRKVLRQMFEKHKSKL

[10] = reduction of Shn3 3'UTR-driven luciferase in osteoblasts – cell-based, Clone20 osteoblasts, firefly luciferase, cherry-picked, dose response (AID 624132); format: functional;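 also: firefly luciferase luminescence from reporter carrying the Shn3 3'UTR in osteoblasts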
[11] = loss of viability in HepG2 cells – cell-based, CellTiter-Glo, cherry-picked, cytotoxicity control for Shn3 inhibitor project, dose response (AID 624134); format: functional
[12] = non-specific 3'UTR reporter inhibition in Clone20-Shn3RL – cell-based, Renilla luciferase, cherry-picked, counter-screen for Shn3 inhibitor project, dose response (AID 624133); format: functional
[13] = blockers of HIV-1 envelope-mediated cell-cell fusion – cherry-pick, dose response (AID 652057); format: functional, cell-based
[14] = viability loss in CEM21 cells – cell-based, CellTiter-Glo luminescence, cherry-picked, cytotoxicity control for viral fusion inhibitor project, dose response (AID 652042); format: functional;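 also: potency for signal decrease meaning cytotoxicity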
[15] = blockers of HIV-1 ZM109 envelope-driven cell-cell fusion – HeLa effector, CEM target cells, luciferase, cherry-pick, dose response (AID 652058); format: functional, cell-based;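 also: luciferase signal from HIV-1 Env mediated cell-cell fusion of effector and target cells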
Paired box protein Pax-8 = Paired box protein Pax-8 (Homo sapiens, UniProt Q06710); assay: PAX8 transcriptional activity inhibition in RMG-I – RMG-I cells, luciferase, cherry-pick, dose response (AID 687027); format: functional, cell-based;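 also: luciferase reporter driven by Pax8 target thyroperoxidase promoter measured by SteadyGlo luminescence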
[16] = off-target signal loss in HeLa-CEM21 co-culture – HeLa F-luc CTL cells, cherry-picked, counter-screen for HIV-1 Env fusion inhibitor project, dose response (AID 652040); format: functional, cell-based;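 also: potency for signal decrease marking cytotoxic or nonspecific inhibition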
[17] = HIV-1 AD8 envelope cell-cell fusion blockers – cherry-pick, dose response (AID 652062); format: functional, cell-based;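 also: luciferase signal from cell-cell fusion driven by HIV-1 clade B AD8 Env; potency is for inhibitors of fusion seen as a drop in luminescence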
[18] = general cell-killing toxicity readout – plate reader, dry powder samples, cytotoxicity control for PAX8 inhibitor project, dose response (AID 743021); format: functional, cell-based
[19] = molecular target: T2, Voltage-gated N-type calcium channel alpha-1B subunit/Amyloid beta A4 precursor protein-binding family A member 1 (Homo sapiens, UniProt Q00975+Q02410); format: protein assay
T2 sequence (Q00975 whole entry): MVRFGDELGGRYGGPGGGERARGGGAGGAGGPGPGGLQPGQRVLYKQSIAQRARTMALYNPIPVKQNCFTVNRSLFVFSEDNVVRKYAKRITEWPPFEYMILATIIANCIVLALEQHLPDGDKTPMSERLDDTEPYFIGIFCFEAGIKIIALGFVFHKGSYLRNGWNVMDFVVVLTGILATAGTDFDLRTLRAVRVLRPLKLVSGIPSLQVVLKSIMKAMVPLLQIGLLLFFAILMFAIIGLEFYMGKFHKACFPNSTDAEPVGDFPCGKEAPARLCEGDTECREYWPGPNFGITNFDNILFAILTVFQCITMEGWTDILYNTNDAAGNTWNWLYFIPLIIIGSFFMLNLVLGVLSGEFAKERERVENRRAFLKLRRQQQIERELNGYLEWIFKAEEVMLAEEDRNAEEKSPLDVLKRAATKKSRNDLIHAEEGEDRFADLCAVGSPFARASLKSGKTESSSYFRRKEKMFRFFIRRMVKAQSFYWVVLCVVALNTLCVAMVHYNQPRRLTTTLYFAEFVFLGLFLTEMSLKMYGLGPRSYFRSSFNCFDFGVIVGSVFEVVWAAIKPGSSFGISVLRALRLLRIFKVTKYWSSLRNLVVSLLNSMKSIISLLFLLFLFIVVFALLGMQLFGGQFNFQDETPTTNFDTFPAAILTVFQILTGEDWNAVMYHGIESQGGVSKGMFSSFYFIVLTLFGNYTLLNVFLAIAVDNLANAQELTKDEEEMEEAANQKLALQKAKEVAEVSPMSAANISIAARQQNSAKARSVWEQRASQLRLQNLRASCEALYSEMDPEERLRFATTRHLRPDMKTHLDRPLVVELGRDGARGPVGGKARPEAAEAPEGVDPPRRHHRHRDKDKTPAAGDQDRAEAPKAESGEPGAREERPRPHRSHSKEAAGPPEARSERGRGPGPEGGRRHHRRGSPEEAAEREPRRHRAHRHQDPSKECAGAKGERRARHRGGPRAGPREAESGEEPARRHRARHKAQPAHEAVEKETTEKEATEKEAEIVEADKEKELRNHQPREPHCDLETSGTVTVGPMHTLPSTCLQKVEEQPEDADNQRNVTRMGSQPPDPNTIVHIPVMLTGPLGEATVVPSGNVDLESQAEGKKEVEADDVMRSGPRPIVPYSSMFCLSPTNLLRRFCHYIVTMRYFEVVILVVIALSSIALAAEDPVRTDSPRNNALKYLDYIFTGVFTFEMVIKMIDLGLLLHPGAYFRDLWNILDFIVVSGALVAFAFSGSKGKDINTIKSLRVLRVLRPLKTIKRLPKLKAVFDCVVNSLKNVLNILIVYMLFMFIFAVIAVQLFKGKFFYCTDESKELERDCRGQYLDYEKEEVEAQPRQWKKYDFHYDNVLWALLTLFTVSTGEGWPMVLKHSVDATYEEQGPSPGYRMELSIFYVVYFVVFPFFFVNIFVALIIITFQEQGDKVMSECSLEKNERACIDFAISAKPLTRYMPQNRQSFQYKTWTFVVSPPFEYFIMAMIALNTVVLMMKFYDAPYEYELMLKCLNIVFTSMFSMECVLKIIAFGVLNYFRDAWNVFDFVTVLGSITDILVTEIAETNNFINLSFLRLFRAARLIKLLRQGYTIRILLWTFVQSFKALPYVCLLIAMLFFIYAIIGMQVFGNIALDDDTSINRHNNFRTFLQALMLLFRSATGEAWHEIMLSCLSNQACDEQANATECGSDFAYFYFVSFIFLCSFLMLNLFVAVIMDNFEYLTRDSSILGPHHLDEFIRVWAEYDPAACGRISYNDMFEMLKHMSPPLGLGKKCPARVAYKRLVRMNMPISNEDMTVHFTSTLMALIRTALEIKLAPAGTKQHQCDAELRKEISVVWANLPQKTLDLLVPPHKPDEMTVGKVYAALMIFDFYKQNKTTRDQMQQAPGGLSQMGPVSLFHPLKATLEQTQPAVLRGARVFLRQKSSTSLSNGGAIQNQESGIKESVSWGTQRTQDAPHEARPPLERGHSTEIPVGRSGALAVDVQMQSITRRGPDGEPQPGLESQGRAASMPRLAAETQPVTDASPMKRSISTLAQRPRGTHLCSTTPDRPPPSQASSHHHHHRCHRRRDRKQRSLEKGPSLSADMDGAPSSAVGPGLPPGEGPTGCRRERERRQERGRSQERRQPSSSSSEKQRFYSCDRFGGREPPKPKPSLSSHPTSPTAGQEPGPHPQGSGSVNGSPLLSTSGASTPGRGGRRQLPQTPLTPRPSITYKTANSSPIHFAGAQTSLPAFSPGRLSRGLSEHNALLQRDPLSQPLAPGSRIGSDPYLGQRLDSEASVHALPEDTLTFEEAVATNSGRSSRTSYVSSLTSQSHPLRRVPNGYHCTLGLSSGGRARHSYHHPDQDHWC
T2 sequence (Q02410 whole entry): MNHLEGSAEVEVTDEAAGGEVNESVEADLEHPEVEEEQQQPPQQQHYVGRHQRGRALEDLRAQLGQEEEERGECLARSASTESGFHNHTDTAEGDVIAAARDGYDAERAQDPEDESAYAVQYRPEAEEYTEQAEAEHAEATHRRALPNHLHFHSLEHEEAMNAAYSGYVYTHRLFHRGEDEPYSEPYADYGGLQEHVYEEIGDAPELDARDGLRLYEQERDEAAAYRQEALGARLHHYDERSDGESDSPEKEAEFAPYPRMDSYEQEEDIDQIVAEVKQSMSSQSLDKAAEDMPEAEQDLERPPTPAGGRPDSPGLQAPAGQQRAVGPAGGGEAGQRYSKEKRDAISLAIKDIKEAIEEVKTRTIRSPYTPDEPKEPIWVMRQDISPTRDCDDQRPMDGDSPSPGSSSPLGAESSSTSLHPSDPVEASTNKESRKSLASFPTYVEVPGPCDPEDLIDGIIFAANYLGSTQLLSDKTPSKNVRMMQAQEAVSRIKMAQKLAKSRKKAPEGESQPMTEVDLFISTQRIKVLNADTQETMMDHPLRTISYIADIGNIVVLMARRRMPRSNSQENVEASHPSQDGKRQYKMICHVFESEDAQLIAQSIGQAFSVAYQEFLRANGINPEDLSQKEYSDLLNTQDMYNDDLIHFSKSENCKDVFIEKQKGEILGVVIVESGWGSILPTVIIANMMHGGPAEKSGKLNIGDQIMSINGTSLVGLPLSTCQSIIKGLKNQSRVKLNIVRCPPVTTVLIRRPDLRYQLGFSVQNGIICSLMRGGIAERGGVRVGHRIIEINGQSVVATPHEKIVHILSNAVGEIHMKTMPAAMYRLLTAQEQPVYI

[20] = molecular target: T2, Voltage-gated N-type calcium channel alpha-1B subunit/Amyloid beta A4 precursor protein-binding family A member 1; format: protein assay; remark: listed apart in the source
[21] = molecular target: T3, Bifunctional protein GlmU (Mycobacterium tuberculosis, UniProt P9WMN3); assay: Inhibitors of Mycobacterial Glucosamine-1-phosphate acetyl transferase (GlmU). Secondary screen.; set-up: species or system Mycobacterium tuberculosis H37Rv
T3 sequence (P9WMN3 whole entry): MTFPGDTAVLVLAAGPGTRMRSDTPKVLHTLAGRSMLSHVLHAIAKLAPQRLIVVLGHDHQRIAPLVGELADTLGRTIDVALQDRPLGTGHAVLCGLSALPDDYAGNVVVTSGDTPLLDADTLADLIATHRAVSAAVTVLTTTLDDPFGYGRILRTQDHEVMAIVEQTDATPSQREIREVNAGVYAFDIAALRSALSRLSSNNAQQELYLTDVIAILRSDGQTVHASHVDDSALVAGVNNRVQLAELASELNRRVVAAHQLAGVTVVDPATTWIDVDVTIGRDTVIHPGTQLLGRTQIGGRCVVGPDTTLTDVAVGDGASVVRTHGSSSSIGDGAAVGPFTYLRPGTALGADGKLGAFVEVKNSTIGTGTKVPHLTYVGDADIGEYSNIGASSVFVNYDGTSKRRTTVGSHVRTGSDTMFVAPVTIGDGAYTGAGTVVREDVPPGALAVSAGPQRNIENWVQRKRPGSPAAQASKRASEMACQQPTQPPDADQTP

[22] = molecular target: Beta-adrenergic receptor kinase 1 (Homo sapiens, UniProt P25098); assay: aptamer displacement from bead-bound GRK2 – biochemical, cherry pick 1, bead flow cytometry, dose response (AID 504500)
HEK293 [23] = assay: EBV LMP1 TES2 canonical NF-kB signalling blockers – cell-based, HEK293, luciferase, cherry-pick, dose response (AID 588343); format: functional; conditions: Homo sapiens
Caspase-6 = molecular target: T4, Caspase-6 (Homo sapiens, UniProt P55212); assay: inhibition of CASP6 peptide cleavage – biochemical, VEID-R110 fluorescence, cherry-pick, dose response (AID 720632)
T4 sequence (P55212 whole entry): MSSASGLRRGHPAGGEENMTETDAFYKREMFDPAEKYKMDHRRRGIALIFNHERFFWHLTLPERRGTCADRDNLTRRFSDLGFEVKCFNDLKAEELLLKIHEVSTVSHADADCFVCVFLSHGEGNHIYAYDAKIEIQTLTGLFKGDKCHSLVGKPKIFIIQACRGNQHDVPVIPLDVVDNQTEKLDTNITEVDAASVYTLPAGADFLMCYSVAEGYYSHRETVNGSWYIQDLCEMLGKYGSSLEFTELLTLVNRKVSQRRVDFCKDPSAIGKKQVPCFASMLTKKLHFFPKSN

[24] = molecular target: Histone-lysine N-methyltransferase NSD2 (Homo sapiens, UniProt O96028); format: biochemical
[25] = blockers of bursicon-stimulated LGR2 cAMP reporter – cell-based, HEK293, CRE-luciferase reporter, cherry pick, set 2, dose response (AID 743343); format: functional;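 also: transfected cells were stimulated with diluted bursicon conditioned medium after compound addition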
[26] = blockade of melanocortin 4 receptor signaling – cell-based, plate reader, cherry pick, counter-screen for LGR2 antagonist project, dose response (AID 743444); format: functional;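 also: transfected HEK 293 cells stimulated with alpha-MSH peptide; potency of inhibitors of the alpha-MSH evoked signal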
Nonstructural protein 1 = Nonstructural protein 1 (Influenza A virus, UniProt Q194T2); format: functional, Influenza A virus (A/California/07/2009(H1N1))
[27] = molecular target: Delta-type opioid receptor (Homo sapiens, UniProt P41143); assay: Counterscreen for agonists of heterodimerization of the mu 1 (OPRM1) and delta 1 (OPRD1) opioid receptors: Luminescence-based cell-based high throughput dose response assay to identify agonists of OPRD1 homodimerization. [Related pubchem assays (depositor defined):AID504326, AID504355, AID504692, AID504904, AID504905]; format: functional
Sequence of Delta-type opioid receptor (P41143 whole entry): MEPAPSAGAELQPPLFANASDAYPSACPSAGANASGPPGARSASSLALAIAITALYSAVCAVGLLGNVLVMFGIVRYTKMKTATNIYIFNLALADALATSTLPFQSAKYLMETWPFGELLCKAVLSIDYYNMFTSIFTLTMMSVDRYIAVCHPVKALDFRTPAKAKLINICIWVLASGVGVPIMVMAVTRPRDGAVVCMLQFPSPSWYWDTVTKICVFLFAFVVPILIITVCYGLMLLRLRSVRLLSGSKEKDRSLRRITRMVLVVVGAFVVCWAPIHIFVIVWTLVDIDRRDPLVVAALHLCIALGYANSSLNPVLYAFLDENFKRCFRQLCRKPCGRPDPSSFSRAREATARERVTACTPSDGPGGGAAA

Mu-type opioid receptor = Mu-type opioid receptor (Homo sapiens, UniProt P35372); assay: Counterscreen for agonists of heterodimerization of the mu 1 (OPRM1) and delta 1 (OPRD1) opioid receptors: Luminescence-based cell-based high throughput dose response assay to identify agonists of OPRM1 homodimerization.; format: functional;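 also: U2OS cells expressing OPRM1 and beta-arrestin as split beta-galactosidase partners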
Sequence of Mu-type opioid receptor (P35372 whole entry): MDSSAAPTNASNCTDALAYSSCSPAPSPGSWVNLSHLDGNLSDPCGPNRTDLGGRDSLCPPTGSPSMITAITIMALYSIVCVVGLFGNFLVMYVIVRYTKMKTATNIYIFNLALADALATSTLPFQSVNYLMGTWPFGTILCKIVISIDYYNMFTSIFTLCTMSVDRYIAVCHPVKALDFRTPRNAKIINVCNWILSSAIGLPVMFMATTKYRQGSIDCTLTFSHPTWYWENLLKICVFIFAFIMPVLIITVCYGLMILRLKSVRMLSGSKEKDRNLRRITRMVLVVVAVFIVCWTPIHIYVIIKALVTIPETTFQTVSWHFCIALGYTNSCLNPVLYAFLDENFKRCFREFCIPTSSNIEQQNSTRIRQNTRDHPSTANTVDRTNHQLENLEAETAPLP

[28] = molecular target: 5-hydroxytryptamine receptor 5A (Homo sapiens, UniProt P47898); assay: Counterscreen for agonists of OPRM1-OPRD1 heterodimerization: luminescence-based cell-based high throughput dose response assay to identify agonists of 5-hydroxytryptamine (serotonin) 5A receptor (HTR5A). [Related pubchem assays (depositor defined):AID504326, AID504355, AID504692, AID504904, AID504905]; format: functional
Sequence of 5-hydroxytryptamine receptor 5A (P47898 whole entry): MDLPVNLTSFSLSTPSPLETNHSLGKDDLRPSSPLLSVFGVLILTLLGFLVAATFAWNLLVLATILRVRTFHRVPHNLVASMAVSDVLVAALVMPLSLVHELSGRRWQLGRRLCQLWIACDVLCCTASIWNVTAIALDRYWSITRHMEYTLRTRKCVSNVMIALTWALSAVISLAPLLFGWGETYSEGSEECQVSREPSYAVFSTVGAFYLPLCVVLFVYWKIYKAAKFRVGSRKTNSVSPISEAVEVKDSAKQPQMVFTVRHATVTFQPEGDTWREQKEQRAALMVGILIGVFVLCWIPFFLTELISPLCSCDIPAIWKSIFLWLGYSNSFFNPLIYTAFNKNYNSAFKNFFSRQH

[29] = viability loss in HeLa cells – cytotoxicity control for MgcRacGAP inhibitor project, dose response (AID 624300); format: functional
[30] = molecular target: T5, Rac GTPase-activating protein 1 (Homo sapiens, UniProt Q9H0H5); assay: blockers of MgcRacGAP-driven Rac1 GTP hydrolysis – biochemical, ADP Hunter fluorescence, primary and confirmatory, confirmation (AID 624330); format: functional
T5 sequence (Q9H0H5 whole entry): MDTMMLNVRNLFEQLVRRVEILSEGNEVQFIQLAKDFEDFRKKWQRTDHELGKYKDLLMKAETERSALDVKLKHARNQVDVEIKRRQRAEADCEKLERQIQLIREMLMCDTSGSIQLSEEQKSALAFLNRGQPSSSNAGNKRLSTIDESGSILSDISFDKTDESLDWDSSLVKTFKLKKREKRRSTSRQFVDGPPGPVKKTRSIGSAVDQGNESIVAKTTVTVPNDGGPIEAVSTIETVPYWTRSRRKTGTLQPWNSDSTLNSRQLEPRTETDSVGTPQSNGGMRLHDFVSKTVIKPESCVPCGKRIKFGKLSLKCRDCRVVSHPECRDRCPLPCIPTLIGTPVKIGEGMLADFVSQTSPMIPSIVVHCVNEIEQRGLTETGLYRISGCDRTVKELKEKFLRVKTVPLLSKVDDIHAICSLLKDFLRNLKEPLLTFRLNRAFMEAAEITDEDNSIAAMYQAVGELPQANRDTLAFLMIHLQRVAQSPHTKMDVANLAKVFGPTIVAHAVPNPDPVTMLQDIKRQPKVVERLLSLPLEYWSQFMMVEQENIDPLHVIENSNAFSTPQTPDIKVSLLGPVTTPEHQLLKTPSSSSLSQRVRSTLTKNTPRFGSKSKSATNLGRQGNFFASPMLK

[31] = viability loss in THP-1 monocytes – THP-1 cells, cytotoxicity control for Vif-APOBEC3G degradation inhibitor project, dose response (AID 1117359); format: functional; conditions: THP-1
[32] = molecular target: Glutathione-S-transferase (Schistosoma japonicum, UniProt Q26513); assay: GST-antibody interaction or FRET quenching – biochemical, TR-FRET, artefact control for Vif-APOBEC3G degradation inhibitor project, dose response (AID 1117362); format: functional
Sequence of Glutathione-S-transferase (Q26513 whole entry): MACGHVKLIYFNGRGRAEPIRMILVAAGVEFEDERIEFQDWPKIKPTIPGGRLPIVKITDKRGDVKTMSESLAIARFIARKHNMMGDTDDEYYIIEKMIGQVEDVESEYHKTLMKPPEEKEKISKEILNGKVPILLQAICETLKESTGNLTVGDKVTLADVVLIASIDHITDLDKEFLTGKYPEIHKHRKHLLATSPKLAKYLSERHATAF

HEK293 [33] = assay: HEK293T cell viability loss, resazurin readout – resazurin fluorescence, cytotoxicity control for NF-kB activator project, SAR follow-up (AID 493251); format: functional, cell-based; conditions: Homo sapiens

## CC1=C(C(=O)Nc2ccc(C(=O)N3CCN(c4ccccc4F)CC3)cc2)SCCO1
[1]
  EC50: 3.01 µM (active)

## CCCC(=O)Nc1ncnc2c1ncn2[C@@H]1O[C@@H]2OP(=O)(O)OC[C@H]2[C@H]1OC(=O)CCC
[2]
  EC50: 6.7 µM (active)
[3]
  EC50: 9.1 µM (active)

## CC1CCN(c2ccc(-c3cccc(NC(=O)C(F)(F)F)c3)nn2)CC1
[4]
  EC50: 5.09 µM (inconclusive)
[5]
  EC50: 8.19 µM (active)
[6]
  EC50: < 0.16 µM (active)
[7]
  EC50: 0.475 µM (inconclusive)
[8]
  IC50: 8.01 µM (active)
[9]
  AC50: 29.2 µM (active)
[10]
  AC50: 2.74 µM (active)
[11]
  AC50: 44.1 µM (active)
[12]
  AC50: 3.1 µM (active)
[13]
  AC50: 2.55 µM (active)
[14]
  AC50: 32.2 µM (active)
[15]
  AC50: 36.5 µM (active)
Paired box protein Pax-8
  AC50: 3.37 µM (active)
[16]
  AC50: 4.11 µM (active)
[17]
  AC50: 11.5 µM (active)
[18]
  AC50: 32 µM (active)

## O=C(O)c1c2c(nc3ccccc13)/C(=C/c1ccc(O)cc1)CC2
[19]
  IC50: 3.85 µM (active)
[20]
  IC50: 18.4 µM (active)
[21]
  IC50: 124 µM (active)
[22]
  EC50: 33.3 µM (inactive)
HEK293 [23]
  AC50: 1.93 µM (active)
Caspase-6
  AC50: 2 µM (active)
[24]
  AC50: 9.03 µM (active)
[25]
  AC50: 6.42 µM (active)
[26]
  AC50: 6.44 µM (active)

## CCN(CC)Cc1cc(Nc2c3ccccc3nc3c4ccccc4n(C)c23)cc(CN(CC)CC)c1O
Nonstructural protein 1
  IC50: 17.9 µM (active)
[27]
  EC50: 1.49 µM (active)
Mu-type opioid receptor
  EC50: > 92.6 µM (inactive)
[28]
  EC50: > 92.6 µM (inactive)
[29]
  CC50: 80 µM (active)
[30]
  IC50: 22.1 µM (active)
[31]
  CC50: 11 µM (active)
[32]
  IC50: 59.5 µM (active)

## Cc1oc(-c2ccccc2)nc1CSCC(=O)NC1CC1
HEK293 [33]
  IC50: > 80 µM (inactive)

Source: ChEMBL document CHEMBL1201862, “PubChem BioAssay data set” (2004)
